The source made the active and inactive calls. The rule behind the calls is not given here.
Legend:
[1] = biological target: Cholinesterase (Equus caballus) (UniProt P81908); assay: Inhibition of equine serum BuChE at 100 uM using butyrylthiocholine iodide as substrate by Ellman's colorimetric analysis relative to control
[2] = pampa, pH 7.4, 16 h
[3] = biological target: T1, Tyrosine-protein kinase Fyn (Homo sapiens, UniProt P06241); assay: Inhibition of amyloid beta-induced Fyn activation in hiPSC neural cells assessed as reduction in tau phosphorylation at Thr 181 residue at 10 uM measured after 4 days by DAPI/Alexa fluor 594 staining based immunocytochemistry analysis; conditions: Induced pluripotent stem cell-derived neuron, time 4.0 day
Target sequence in this assay (P06241 2-537 limits assumed): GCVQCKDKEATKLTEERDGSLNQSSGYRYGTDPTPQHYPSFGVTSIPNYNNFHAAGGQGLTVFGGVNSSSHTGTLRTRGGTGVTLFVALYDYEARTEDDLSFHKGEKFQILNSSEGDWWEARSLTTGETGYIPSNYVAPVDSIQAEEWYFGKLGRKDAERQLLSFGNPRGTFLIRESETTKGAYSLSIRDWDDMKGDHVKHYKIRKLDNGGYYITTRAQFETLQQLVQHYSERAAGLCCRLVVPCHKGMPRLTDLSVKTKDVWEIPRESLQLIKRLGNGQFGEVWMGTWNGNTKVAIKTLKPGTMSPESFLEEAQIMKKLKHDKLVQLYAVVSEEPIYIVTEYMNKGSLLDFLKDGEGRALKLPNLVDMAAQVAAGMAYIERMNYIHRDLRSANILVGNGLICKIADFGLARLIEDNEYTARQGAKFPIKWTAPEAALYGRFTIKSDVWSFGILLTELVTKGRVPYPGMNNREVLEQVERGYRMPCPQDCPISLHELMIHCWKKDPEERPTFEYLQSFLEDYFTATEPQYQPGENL

[4] = Cytotoxicity against hiPSC neural cells assessed as reduction in cell viability at 10 uM incubated for 24 hrs by MTT assay; type: cell-based; conditions: human, induced pluripotent stem cell-derived neuron
[5] = Aggregation property of the compound in PBS buffer assessed as aggregate formation at 10 to 100 uM incubated for 2 hrs by light scattering spectrofluorimetric assay; type: physicochemical; conditions: dose 10-100 µM
[6] = biological target: T1, Tyrosine-protein kinase Fyn; assay: Inhibition of basal Fyn activation in hiPSC neural progenitor cells assessed as reduction in pFyn levels in absence of amyloid beta at 10 uM by DAPI staining based immunofluorescence assay; conditions: induced pluripotent stem cell-derived neuron
Target sequence in this assay (P06241 whole entry): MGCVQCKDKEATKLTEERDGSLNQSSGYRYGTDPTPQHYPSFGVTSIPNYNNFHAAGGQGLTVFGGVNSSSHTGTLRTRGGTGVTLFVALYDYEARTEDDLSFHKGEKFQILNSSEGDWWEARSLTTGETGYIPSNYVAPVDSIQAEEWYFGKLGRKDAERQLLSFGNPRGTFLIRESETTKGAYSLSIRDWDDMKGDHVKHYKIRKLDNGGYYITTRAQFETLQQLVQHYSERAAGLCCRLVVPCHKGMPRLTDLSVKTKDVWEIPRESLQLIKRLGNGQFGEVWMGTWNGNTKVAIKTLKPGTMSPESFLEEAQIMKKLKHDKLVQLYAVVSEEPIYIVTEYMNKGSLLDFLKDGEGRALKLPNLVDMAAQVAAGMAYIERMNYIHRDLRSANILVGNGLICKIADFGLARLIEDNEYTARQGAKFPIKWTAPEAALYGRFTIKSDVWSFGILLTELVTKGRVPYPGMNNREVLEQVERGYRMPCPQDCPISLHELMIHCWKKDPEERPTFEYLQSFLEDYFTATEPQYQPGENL

[7] = biological target: Acetylcholinesterase (Electrophorus electricus) (UniProt O42275); assay: Inhibition of electric eel AChE at 100 uM using acetylthiocholine iodide as substrate by Ellman's colorimetric analysis relative to control
Chain of Acetylcholinesterase (Electrophorus electricus) (O42275 24-633 limits assumed): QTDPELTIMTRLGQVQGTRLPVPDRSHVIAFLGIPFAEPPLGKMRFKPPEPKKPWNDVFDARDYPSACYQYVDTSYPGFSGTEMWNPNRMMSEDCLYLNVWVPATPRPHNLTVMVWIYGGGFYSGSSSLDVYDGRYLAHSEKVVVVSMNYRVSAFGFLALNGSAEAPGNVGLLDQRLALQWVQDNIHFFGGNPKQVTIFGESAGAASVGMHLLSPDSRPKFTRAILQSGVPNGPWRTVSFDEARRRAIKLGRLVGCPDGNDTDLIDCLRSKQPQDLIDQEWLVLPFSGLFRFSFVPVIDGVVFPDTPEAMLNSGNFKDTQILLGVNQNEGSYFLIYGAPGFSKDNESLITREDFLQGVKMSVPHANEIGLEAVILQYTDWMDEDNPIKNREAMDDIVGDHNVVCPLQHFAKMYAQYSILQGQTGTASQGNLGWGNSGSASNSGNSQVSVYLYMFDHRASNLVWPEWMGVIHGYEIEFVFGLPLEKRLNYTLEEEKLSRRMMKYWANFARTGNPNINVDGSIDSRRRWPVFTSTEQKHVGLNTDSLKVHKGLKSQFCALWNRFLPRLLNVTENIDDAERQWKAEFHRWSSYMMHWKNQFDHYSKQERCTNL

[8] = biological target: T1, Tyrosine-protein kinase Fyn; assay: Inhibition of natural amyloid beta (1 to 42) -induced Fyn activation in hiPSC neural progenitor cells assessed as reduction in Fyn production at 10 uM preincubated fot 45 mins followed by amyloid beta addition and measured after 15 mins by DAPI/Alexa fluor 594 immunostaining based assay; conditions: Induced pluripotent stem cell-derived neuron, time 60.0 min
Target sequence in this assay (P06241 2-537 limits assumed): as the sequence (P06241 2-537 limits assumed) above

[9] = Aggregation property of the compound in PBS buffer at 10 to 100 uM incubated for 2 hrs by UV/Vis double beam spectrophotometric method; type: physicochemical; conditions: dose 10-100 µM
[10] = Cytotoxicity against hiPSC neural cells assessed as reduction in cell viability up to 100 uM incubated for 24 hrs by MTT assay; type: cell-based; conditions: human, induced pluripotent stem cell-derived neuron
[11] = biological target: T1, Tyrosine-protein kinase Fyn; assay: Inhibition of Fyn activation (unknown origin) by ADP-Glo kinase assay
Target sequence in this assay (P06241 2-537 limits assumed): as above

[12] = Cytotoxicity against hiPSC neural cells assessed as reduction in cell viability up to 50 uM incubated for 24 hrs by MTT assay; type: cell-based; conditions: human, induced pluripotent stem cell-derived neuron
[13] = biological target: Amyloid-beta precursor protein (Homo sapiens) (UniProt P05067); assay: Inhibition of human amyloid beta (1 to 42) self-induced aggregation at 50 uM by Thioflavin T based fluorometric assay
Chain of Amyloid-beta precursor protein (Homo sapiens) (P05067 whole entry): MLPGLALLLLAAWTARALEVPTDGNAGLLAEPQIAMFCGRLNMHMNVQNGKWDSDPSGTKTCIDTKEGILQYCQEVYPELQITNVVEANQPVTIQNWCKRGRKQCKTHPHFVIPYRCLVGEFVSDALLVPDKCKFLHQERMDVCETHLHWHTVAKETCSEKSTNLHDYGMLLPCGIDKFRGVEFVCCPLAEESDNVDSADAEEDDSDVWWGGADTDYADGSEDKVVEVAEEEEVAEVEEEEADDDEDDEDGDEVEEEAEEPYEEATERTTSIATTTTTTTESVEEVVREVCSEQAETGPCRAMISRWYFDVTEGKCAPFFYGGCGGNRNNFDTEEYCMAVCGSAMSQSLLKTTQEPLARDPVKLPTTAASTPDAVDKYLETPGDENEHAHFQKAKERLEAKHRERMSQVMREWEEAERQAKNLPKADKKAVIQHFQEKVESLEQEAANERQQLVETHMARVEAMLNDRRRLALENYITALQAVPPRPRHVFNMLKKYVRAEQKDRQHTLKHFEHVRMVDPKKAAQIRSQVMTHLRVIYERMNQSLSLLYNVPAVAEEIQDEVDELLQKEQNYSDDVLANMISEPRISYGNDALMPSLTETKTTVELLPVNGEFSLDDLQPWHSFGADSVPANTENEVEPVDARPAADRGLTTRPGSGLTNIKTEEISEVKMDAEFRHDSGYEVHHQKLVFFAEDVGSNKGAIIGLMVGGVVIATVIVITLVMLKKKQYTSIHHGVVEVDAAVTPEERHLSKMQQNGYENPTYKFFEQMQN

[14] = Octanol/water partition coefficient, log D of compound at pH 7.4 at 1 uM incubated for 2 hrs by LC-MS analysis; type: physicochemical
Saccharomyces cerevisiae [15] = assay: Uncompetitive inhibition of Saccharomyces cerevisiae alpha-glucosidase at 100 uM using p-nitrophenyl glycosides as substrate measured for 125 secs by spectrophotometry analysis relative to control; conditions: time 125.0 sec
Prunus dulcis = assay: Competitive inhibition of almond beta-glucosidase at 100 uM using p-nitrophenyl glycosides as substrate measured for 125 secs by spectrophotometry analysis relative to control; conditions: time 125.0 sec
[16] = Competitive inhibition of almond beta-glucosidase using p-nitrophenyl glycosides as substrate measured for 125 secs by spectrophotometry analysis; set-up: species or system Prunus dulcis
[17] = Uncompetitive inhibition of Saccharomyces cerevisiae alpha-glucosidase assessed as inhibition constant for inhibitor-substrate-enzyme complex formation using p-nitrophenyl glycosides as substrate measured for 125 secs by spectrophotometry analysis
Saccharomyces cerevisiae [18] = assay: Competitive inhibition of Saccharomyces cerevisiae alpha-glucosidase at 100 uM using p-nitrophenyl glycosides as substrate measured for 125 secs by spectrophotometry analysis relative to control; conditions: time 125.0 sec
[19] = Competitive inhibition of Saccharomyces cerevisiae alpha-glucosidase assessed as inhibition constant for inhibitor-enzyme complex formation using p-nitrophenyl glycosides as substrate measured for 125 secs by spectrophotometry analysis
[20] = Aqueous solubility of the compound in 5 % DMSO at 50 to 100 uM incubated for 2 hrs; type: physicochemical; conditions: buffer, dose 50-100 µM
[21] = buffer, 100 µM
[22] = Membrane retention of compound assessed as partial membrane retention at pH 7.4 by LC-MS based PAMPA assay; type: ADME
[23] = Membrane retention of compound at pH 7.4 incubated for 16 hrs by PAMPA assay; type: ADME; conditions: pH 7.4, 16 h

Chain of Cholinesterase (Equus caballus) (P81908 whole entry): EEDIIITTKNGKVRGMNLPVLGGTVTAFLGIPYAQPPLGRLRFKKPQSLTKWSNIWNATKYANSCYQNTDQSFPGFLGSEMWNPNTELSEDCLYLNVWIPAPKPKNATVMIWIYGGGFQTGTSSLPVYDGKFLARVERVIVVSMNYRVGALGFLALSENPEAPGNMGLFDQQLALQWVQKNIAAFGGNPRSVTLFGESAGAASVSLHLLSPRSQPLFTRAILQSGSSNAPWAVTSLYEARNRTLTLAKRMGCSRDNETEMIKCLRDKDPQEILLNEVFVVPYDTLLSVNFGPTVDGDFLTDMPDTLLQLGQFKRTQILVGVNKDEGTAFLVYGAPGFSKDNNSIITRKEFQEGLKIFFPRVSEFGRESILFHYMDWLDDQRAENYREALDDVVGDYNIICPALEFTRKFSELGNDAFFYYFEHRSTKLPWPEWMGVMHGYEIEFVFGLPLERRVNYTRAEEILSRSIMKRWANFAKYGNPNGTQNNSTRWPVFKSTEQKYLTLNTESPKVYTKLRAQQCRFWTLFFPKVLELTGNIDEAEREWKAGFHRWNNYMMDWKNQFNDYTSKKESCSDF

Row | SMILES | inhibition [1] | inhibition [3] | Activity [4] | Activity [5] | inhibition (INH) [6] | inhibition [7] | inhibition [8] | Activity [9] | inhibition [13] | logD at 2 h, 1 µM [14] | also measured
1 | CC(=O)c1c(O)cc(O)c([C@@H]2O[C@H](CO)[C@@H](O)[C@H](O)[C@H]2O)c1O | 15% | Active | Non-Toxic | Not Active | Not Active | inactive | Active | Not Active |  |  | logPeff [2]: Bld; Activity [10]: Non-Toxic
2 | COC[C@H]1O[C@@H](c2c(O)cc(O)c(C(C)=O)c2O)[C@H](OC)[C@@H](OC)[C@@H]1OC | 16% | Active | Non-Toxic | Not Active | Not Active | inactive | Active | Not Active | inactive | 2.3 | inhibition [11]: inactive; Activity [12]: Non-Toxic
3 | OC[C@H]1O[C@@H](c2c(O)ccc3ccccc23)[C@H](O)[C@@H](O)[C@@H]1O | 10% |  | Non-Toxic | Not Active | Not Active | inactive | Active | Not Active | inactive |  | 
4 | COC[C@H]1O[C@@H](c2c(O)ccc3ccccc23)[C@H](OC)[C@@H](OC)[C@@H]1OC | 23% |  | Non-Toxic |  | Not Active | inactive |  |  |  | 2.7 | 
5 | O=C(Oc1ccc([C@@H]2O[C@H](CO)[C@@H](O)[C@H](O)[C@H]2O)cc1OC(=O)c1ccccc1)c1ccccc1 | 39% | Active | Non-Toxic | Not Active | Not Active | inactive | Active | Not Active | inactive |  | Activity [10]: Non-Toxic
6 | O=c1c(-c2ccc(O)cc2)coc2cc(O)cc(O)c12 [GENISTEIN] | 41% | Active | Non-Toxic |  |  | 12% | Active |  |  | 3.3 | inhibition (Saccharomyces cerevisiae [15]): 84%; inhibition (Prunus dulcis): 44%; Ki [16]: 66 µM; Ki [17]: 12 µM
7 | O=C(Oc1ccc(O[C@H]2O[C@H](CO)[C@@H](O)[C@H](O)[C@H]2O)cc1)c1ccccc1 | 10% | Active | Non-Toxic |  | Not Active | inactive |  |  |  | 1 | logPeff [2]: Not Active; Activity [10]: Non-Toxic
8 | O=C(Cc1ccccc1)c1c(O)cc(O)c([C@@H]2O[C@H](CO)[C@@H](O)[C@H](O)[C@H]2O)c1O | 17% |  |  |  |  | inactive |  |  |  |  | 
9 | COC[C@H]1O[C@@H](c2cc(O)ccc2O)[C@H](OC)[C@@H](OC)[C@@H]1OC | 21% | Active | Non-Toxic | Not Active | Not Active | inactive |  | Not Active | inactive |  | inhibition [11]: Active
10 | O=C(Oc1ccc(OC(=O)c2ccccc2)c([C@@H]2O[C@H](CO)[C@@H](O)[C@H](O)[C@H]2O)c1)c1ccccc1 | 21% |  | Non-Toxic |  | Not Active | inactive |  |  |  | 2 | 
11 | O=C(Oc1ccccc1O[C@H]1O[C@H](CO)[C@@H](O)[C@H](O)[C@H]1O)c1ccccc1 | 17% | inactive | Non-Toxic | Not Active | Not Active | 10% |  | Not Active | inactive | 0.1 | inhibition (Saccharomyces cerevisiae [18]): 74%; Ki [19]: 39 µM
12 | COC[C@H]1O[C@@H](c2cc(OC(=O)c3ccccc3)ccc2OC(=O)c2ccccc2)[C@H](OC)[C@@H](OC)[C@@H]1OC | 16% | Active | Non-Toxic |  | Not Active | 19% | Active |  |  | > 2.5 | logPeff [2]: Not Active; solubility [20]: Insoluble; solubility [21]: Insoluble
13 | O=c1c(-c2ccc(O)cc2)coc2c([C@@H]3O[C@H](CO)[C@@H](O)[C@H](O)[C@H]3O)c(O)cc(O)c12 |  |  |  |  |  |  |  |  |  | -0.1 | 
14 | O=C(Cc1ccccc1)c1c(O)cc(O)cc1O |  |  |  |  |  |  |  |  | inactive |  | 
15 | COC[C@H]1O[C@@H](c2ccc(OC(=O)c3ccccc3)c(OC(=O)c3ccccc3)c2)[C@H](OC)[C@@H](OC)[C@@H]1OC | 12% | Active | Non-Toxic |  | Not Active | inactive | Active |  | inactive | > 2.5 | solubility [20]: Insoluble; solubility [21]: Insoluble; Drug uptake [22]: Active; Drug uptake [23]: Active
16 | O=C(Oc1ccc(O)c([C@@H]2O[C@H](CO)[C@@H](O)[C@H](O)[C@H]2O)c1)c1ccccc1 | inactive |  | Non-Toxic | Not Active | Not Active | inactive | Active | Not Active | inactive | < 0.5 | 
17 | COC[C@H]1O[C@@H](c2cc(OC(=O)c3ccccc3)ccc2O)[C@H](OC)[C@@H](OC)[C@@H]1OC | 12% |  | Non-Toxic |  | Not Active | 14% |  |  |  | 3.2 | Drug uptake [23]: 80%
18 | COC[C@H]1O[C@@H](c2c(O)cc(O)cc2O)[C@H](OC)[C@@H](OC)[C@@H]1OC | 10% | inactive | Non-Toxic | Not Active | Not Active | inactive | Active | Not Active |  | 1.6 | inhibition [11]: Active
19 | Oc1ccc(OC2O[C@H](COCc3ccccc3)[C@@H](OCc3ccccc3)[C@H](OCc3ccccc3)[C@H]2OCc2ccccc2)cc1 (stereo partly drawn) |  |  |  |  |  |  |  |  | inactive |  | 
20 | COC[C@H]1O[C@@H](c2ccc(O)c(O)c2)[C@H](OC)[C@@H](OC)[C@@H]1OC | 16% |  | Non-Toxic |  | Not Active | 15% |  |  | inactive | 1.1 | 
21 | O=C(Cc1ccccc1)Oc1cc(O)cc(O)c1 |  |  |  |  |  |  |  |  | inactive |  | 
22 | CC(=O)N1CCN(c2ccc(OCC3COC(Cn4ccnc4)(c4ccc(Cl)cc4Cl)O3)cc2)CC1 (stereo not drawn) [KETOCONAZOLE] |  |  |  | Not Active |  |  |  |  |  |  | 
